Reference: ChEMBL document CHEMBL5376002, “A Hybrid Antimicrobial Peptide Targeting Staphylococcus aureus with a Dual Function of Inhibiting Quorum Sensing Signaling and an Antibacterial Effect” (J Med Chem, 2023)
≈ marks a conversion by molar mass, not a printed value. Calls of active or inactive are those of the source. The rule behind the calls is not given here. Numbered stars: 1 amine (or outer) side, 2 acyl side, 3 side chain; on linkers, the order of the positions; unused ones are H or OH. Bridge positions count the residues as written; N and C are the ends. Square brackets hold non-standard residues; d marks the D form. Peptide text beside a SMILES is read from it. I, II: the chains in the order shown. X1 = O=C1CC([*:2])C(=O)N1CCCCCC(=O)[*:1]; Dab = NCC[C@H](N)C(=O)O

Tests used:
Staphylococcus aureus [1] = assay: Inhibition of biofilm formation in Staphylococcus aureus at 0.39 uM incubated for 24 hrs by crystal violet staining based analysis; assay type: functional, organism-based
Staphylococcus aureus [2] = assay: Antibacterial activity against Staphylococcus aureus ATCC 43300 assessed as inhibition of bacterial growth incubated for 18 to 24 hrs; assay type: functional; conditions: time 18-24 hrs
[3] = Binding affinity to AgrC-I extra-loop-I (unknown origin) assessed as change in enthalpy incubated for 10 mins by isothermal titration calorimetry analysis
Staphylococcus aureus [4] = assay: Inhibition of biofilm formation in Staphylococcus aureus incubated for 24 hrs by crystal violet staining based microscopic analysis; assay type: functional, organism-based
[5] = Inhibition of quorum sensing system in Staphylococcus aureus ATCC 6538p assessed as downregulation of RNAIII expression level at 0.78 uM incubated for 24 hrs by qRT-PCR analysis
RAW264.7 = assay: Cytotoxicity against mouse RAW264.7 cells assessed as cell viability incubated for 48 hrs by MTT assay; assay type: functional
Erythrocyte = assay: Hemolytic activity in rat RBC assessed as hemolysis measured after 20 hrs; assay type: toxicity, cell-based
[6] = Inhibition of quorum sensing system in Staphylococcus epidermidis ATCC 12228 assessed as downregulation of RNAIII expression level at 0.78 uM incubated for 24 hrs by qRT-PCR analysis
Homo sapiens [7] = species on record: Homo sapiens; assay: Binding affinity to AgrC-I extra-loop-II (unknown origin) assessed as change in entropy incubated for 10 mins by isothermal titration calorimetry analysis
Streptococcus mutans [8] = assay: Antibacterial activity against Streptococcus mutans UA159 assessed as inhibition of bacterial growth incubated for 18 to 24 hrs; assay type: functional; conditions: time 18-24 hrs
Cell membrane = assay: Induction of cell membrane damage in Staphylococcus aureus ATCC 6538p assessed as increase in fluorescent intensity incubated for 30 mins by PI staining based flow cytometry assay
[9] = Binding affinity to AgrC-I extra-loop-II (unknown origin) assessed as dissociation constant incubated for 10 mins by isothermal titration calorimetry analysis
Staphylococcus aureus [10] = assay: Antivirulence activity against Staphylococcus aureus ATCC 6538p assessed as downregulation of RNAIII expression level at 2.5 uM measured for 28 passages by qRT-PCR analysis; assay type: functional, organism-based
Staphylococcus aureus [11] = assay: Bactericidal activity against Staphylococcus aureus ATCC 12600 assessed as inhibition of bacterial growth incubated for 18 to 24 hrs; assay type: functional; conditions: time 18-24 hrs
[12] = test system: Staphylococcus epidermidis; assay: Bactericidal activity against Staphylococcus epidermidis ATCC 12228 assessed as inhibition of bacterial growth incubated for 18 to 24 hrs; assay type: functional; conditions: time 18-24 hrs
Streptococcus pneumoniae [13] = assay: Antibacterial activity against Streptococcus pneumoniae ATCC 49619 assessed as inhibition of bacterial growth incubated for 18 to 24 hrs; assay type: functional; conditions: time 18-24 hrs
[14] = Toxicity in Kunming mouse infected with Staphylococcus aureus ATCC 6538p assessed as weight loss 15 to 45 mg/kg, ip pre-infected with bacteria for 1 hr followed by compound administration and measured after 3 days; assay type: organism-based; conditions: in vivo, 72 h, dose 15-45 mg/kg, time 3 day
[15] = test system: Staphylococcus saprophyticus; assay: Antibacterial activity against Staphylococcus saprophyticus ATCC BAA-750 assessed as inhibition of bacterial growth incubated for 18 to 24 hrs; assay type: functional; conditions: time 18-24 hrs
Streptococcus mutans [16] = assay: Antibacterial activity against Streptococcus mutans ATCC 25175 assessed as inhibition of bacterial growth incubated for 18 to 24 hrs; assay type: functional; conditions: time 18-24 hrs
[17] = Binding affinity to AgrC-I extra-loop-II (unknown origin) assessed as change in enthalpy incubated for 10 mins by isothermal titration calorimetry analysis
Staphylococcus aureus [18] = assay: Bactericidal activity against Staphylococcus aureus ATCC 43300 assessed as inhibition of bacterial growth incubated for 18 to 24 hrs; assay type: functional; conditions: time 18-24 hrs
Homo sapiens [19] = species on record: Homo sapiens; assay: Binding affinity to AgrC-I extra-loop-III (unknown origin) assessed as change in entropy incubated for 10 mins by isothermal titration calorimetry analysis
Staphylococcus aureus [20] = assay: Antibacterial activity against Staphylococcus aureus ATCC 12600 assessed as inhibition of bacterial growth incubated for 18 to 24 hrs; assay type: functional; conditions: time 18-24 hrs
Staphylococcus aureus [21] = assay: Inhibition of biofilm formation in Staphylococcus aureus at 0.78 to 1.56 uM incubated for 24 hrs by crystal violet staining based analysis; assay type: functional, organism-based; conditions: dose 0.78-1.56 µM
[22] = Binding affinity to AgrC-I extra-loop-I (unknown origin) assessed as dissociation constant incubated for 10 mins by isothermal titration calorimetry analysis
Escherichia coli [23] = assay: Antibacterial activity against Escherichia coli assessed as reduction in bacterial growth at 6.25 uM measured at 20 mins by time kill assay; assay type: functional, organism-based
[24] = Binding affinity to AgrC-I extra-loop-III (unknown origin) assessed as dissociation constant incubated for 10 mins by isothermal titration calorimetry analysis
[25] = Toxicity in Kunming mouse infected with Staphylococcus aureus ATCC 6538p assessed as body weight gain 15 to 45 mg/kg, ip pre-infected with bacteria for 1 hr followed by compound administration and measured after 5 days; assay type: organism-based; conditions: in vivo, 120 h, dose 15-45 mg/kg, time 5 day
Streptococcus mutans [26] = assay: Bactericidal activity against Streptococcus mutans UA159 assessed as inhibition of bacterial growth incubated for 18 to 24 hrs; assay type: functional; conditions: time 18-24 hrs
Staphylococcus aureus [27] = assay: Antibacterial activity against Staphylococcus aureus ATCC 6538p assessed as inhibition of bacterial growth incubated for 18 to 24 hrs; assay type: functional; conditions: time 18-24 hrs
[28] = Binding affinity to AgrC-I extra-loop-III (unknown origin) assessed as change in enthalpy incubated for 10 mins by isothermal titration calorimetry analysis
Homo sapiens [29] = species on record: Homo sapiens; assay: Binding affinity to AgrC-I extra-loop-II (unknown origin) assessed as gibbs free energy change incubated for 10 mins by isothermal titration calorimetry analysis
Streptococcus pneumoniae [30] = assay: Bactericidal activity against Streptococcus pneumoniae ATCC 49619 assessed as inhibition of bacterial growth incubated for 18 to 24 hrs; assay type: functional; conditions: time 18-24 hrs
Escherichia coli [31] = assay: Bactericidal activity against Escherichia coli ATCC 25922 assessed as inhibition of bacterial growth incubated for 18 to 24 hrs; assay type: functional; conditions: time 18-24 hrs
[32] = Toxicity in Kunming mouse infected with Staphylococcus aureus ATCC 6538p assessed as animal survival rate 15 mg/kg, ip pre-infected with bacteria for 1 hr followed by compound administration and measured after 7 days; assay type: organism-based; conditions: in vivo, 168 h, time 7 day
Staphylococcus aureus [33] = assay: Bactericidal activity against Staphylococcus aureus ATCC 6538p assessed as inhibition of bacterial growth incubated for 18 to 24 hrs; assay type: functional; conditions: time 18-24 hrs
Escherichia coli [34] = assay: Antibacterial activity against Escherichia coli ATCC 25922 assessed as inhibition of bacterial growth incubated for 18 to 24 hrs; assay type: functional; conditions: time 18-24 hrs
[35] = Toxicity in Kunming mouse infected with Staphylococcus aureus ATCC 6538p assessed as animal survival rate 45 mg/kg, ip pre-infected with bacteria for 1 hr followed by compound administration and measured after 7 days; assay type: organism-based; conditions: in vivo, 168 h, time 7 day
[36] = test system: Staphylococcus saprophyticus; assay: Antibacterial activity against Staphylococcus saprophyticus assessed as reduction in bacterial growth at 6.25 uM measured at 20 mins by time kill assay; assay type: functional, organism-based
Streptococcus pneumoniae [37] = assay: Antibacterial activity against Streptococcus pneumoniae assessed as reduction in bacterial growth at 6.25 uM measured at 20 mins by time kill assay; assay type: functional, organism-based
Staphylococcus aureus [38] = assay: Antivirulence activity against Staphylococcus aureus assessed as downregulation of RNAIII expression level at 1 to 100 uM incubated for 24 hrs by qRT-PCR analysis; assay type: functional, organism-based; conditions: dose 1-100 µM

## CC[C@H](C)[C@H](NC(=O)CNC(=O)CNC(=O)[C@@H](N)CSC1CC(=O)N(CCCCCC(=O)NCC(=O)N[C@H](C(=O)N[C@@H](CCCCN)C(=O)N[C@@H](CC(N)=O)C(=O)N[C@@H](CC(C)C)C(=O)N[C@@H](Cc2c[nH]c3ccccc23)C(=O)N[C@@H](CCCCN)C(=O)N[C@@H](CCCCN)C(=O)N[C@@H](CCSC)C(=O)N[C@H](C(=O)N[C@@H](CCCCN)C(=O)N[C@@H](CC(C)C)C(=O)N[C@@H](Cc2c[nH]c3ccccc23)C(=O)N[C@@H](Cc2ccc(O)cc2)C(=O)O)[C@@H](C)CC)[C@@H](C)CC)C1=O)C(=O)N[C@@H](CC(N)=O)C(=O)N[C@H]1CCNC(=O)[C@H](CC(C)C)NC(=O)[C@H](CC(C)C)NC(=O)[C@H](Cc2ccccc2)NC(=O)[C@H](C)NC1=O (stereo partly specified) (I: GIKNLWKKMIKLWY-OH / II: H-CGGIN[Dab]AFLL; linker I:N-II:1 via X1; lactam II:6-II:C)
Staphylococcus aureus [1]
  inhibition: Active
Staphylococcus aureus [2]
  MIC: 6.25 µM (≈ 18.8 µg/mL)
[3]
  deltaH: -4.7 kcal/mol
Staphylococcus aureus [4]
  inhibition: Active
[5]
  inhibition: Active
RAW264.7
  CC50: 71.1 µM
Erythrocyte
  Activity: Toxic
[6]
  inhibition: inactive
Homo sapiens [7]
  -TdeltaS: 16.4 kcal/mol
Streptococcus mutans [8]
  MIC: 6.25 µM (≈ 18.8 µg/mL)
Cell membrane
  Activity: Active
[9]
  Kd: 1 pM
Staphylococcus aureus [10]
  Activity: Active
Staphylococcus aureus [11]
  MBC: 3.13 µM (≈ 9.4 µg/mL)
[12]
  MBC: 3.13 µM (≈ 9.4 µg/mL)
Streptococcus pneumoniae [13]
  MIC: 6.25 µM (≈ 18.8 µg/mL)
[14]
  Activity: Non-Toxic
[15]
  MIC: 3.13 µM (≈ 9.4 µg/mL)
Streptococcus mutans [16]
  MIC: 3.13 µM (≈ 9.4 µg/mL)
[17]
  deltaH: inactive
Staphylococcus aureus [18]
  MBC: 6.25 µM (≈ 18.8 µg/mL)
Homo sapiens [19]
  -TdeltaS: -16.3 kcal/mol
Staphylococcus aureus [20]
  MIC: 3.13 µM (≈ 9.4 µg/mL)
Staphylococcus aureus [21]
  inhibition: Active
[22]
  Kd: 1 pM
Escherichia coli [23]
  Activity: inactive
[24]
  Kd: 1 pM
[25]
  Activity: Non-Toxic
Streptococcus mutans [26]
  MBC: 6.25 µM (≈ 18.8 µg/mL)
Staphylococcus aureus [27]
  MIC: 3.13 µM (≈ 9.4 µg/mL)
[28]
  deltaH: inactive
Homo sapiens [29]
  deltaG: -16.4 kcal/mol
Streptococcus pneumoniae [30]
  MBC: 6.25 µM (≈ 18.8 µg/mL)
Escherichia coli [31]
  MBC: 12.5 µM (≈ 37.5 µg/mL)
[32]
  Activity: 20%
Staphylococcus aureus [33]
  MBC: 3.13 µM (≈ 9.4 µg/mL)
Escherichia coli [34]
  MIC: 3.13 µM (≈ 9.4 µg/mL)
[35]
  Activity: 50%
[36]
  Activity: inactive
Streptococcus pneumoniae [37]
  Activity: inactive
Staphylococcus aureus [38]
  Activity: Active
